The values below are quoted from earlier work in patent US20240141352A1, “CHAPERONIN-CONTAINING TCP-1 INHIBITORS FOR THE TREATMENT OF CANCER” (UNIVERSITY OF CENTRAL FLORIDA RESEARCH FOUNDATION, INC., priority 2021, published 2024).

The test system of one series is MDA-MB-231 cells. Conditions: MDA-MB-231 spheroids.
The subject of series [1] is cancer cells that highly express CCT.
A further series has as its target T1, CCT2 subunit (Homo sapiens, UniProt P78371).
T1 sequence (P78371 1-535): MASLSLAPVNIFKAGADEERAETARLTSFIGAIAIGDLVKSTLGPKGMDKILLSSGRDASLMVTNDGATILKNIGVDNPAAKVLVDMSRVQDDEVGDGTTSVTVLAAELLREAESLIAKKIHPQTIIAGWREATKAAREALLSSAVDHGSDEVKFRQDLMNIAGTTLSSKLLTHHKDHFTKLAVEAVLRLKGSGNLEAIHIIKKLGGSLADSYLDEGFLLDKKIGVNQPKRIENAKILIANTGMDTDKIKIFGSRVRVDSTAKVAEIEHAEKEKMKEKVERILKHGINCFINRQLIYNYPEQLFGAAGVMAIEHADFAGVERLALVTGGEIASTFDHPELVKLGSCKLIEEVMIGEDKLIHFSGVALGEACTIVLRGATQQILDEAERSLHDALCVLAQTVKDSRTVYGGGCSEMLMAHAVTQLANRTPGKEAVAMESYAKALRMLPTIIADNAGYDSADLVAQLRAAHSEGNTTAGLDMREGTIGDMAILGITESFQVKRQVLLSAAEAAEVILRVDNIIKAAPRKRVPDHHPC

Series [2] deals with breast and prostate tumors. To be noted: systemic delivery with polymeric nanoparticles.

In the case of `N.N.O=C([O-])C1(C(=O)[O-])CCC1.[Pt+2]` [carboplatin], the “resistance of spheroids to treatment” value in the series on MDA-MB-231 cells is given as “increased resistance”.

For the compound `COc1cccc2c1C(=O)c1c(O)c3c(c(O)c1C2=O)C[C@@](O)(C(=O)CO)C[C@@H]3O[C@H]1C[C@H](N)[C@H](O)[C@H](C)O1` [doxorubicin], in the series on MDA-MB-231 cells, the “resistance of spheroids to treatment” value is reported as “increased resistance”.

With VTIFVAGVLTASLTIWKKMG [CT20p], the cytotoxicity result in series [1] is on record as “cytotoxic”. In addition, in the series with CCT2 subunit, the “binding to CCT2 subunit” value was “directly binds”. Moreover, in series [2], the tumor regression result is listed as “regression”.
